Columns and labels:
COVID-19 [1] = test: IL-6 level / ICU duration quadrants of COVID-19 ICU patients after therapeutic administration; format: in vivo, human; details: for patient count in quadrant Q2 / proportion of patients in quadrant Q2: Q2: ICU ≥15 days or deceased and IL-6 <10 pg/mL; for patients in Q3: Q3: ICU <15 d and IL-6 ≥10 pg/mL; for Proportion of Group − Proportion of Other: cohort vs patients not taking the drug class
Experimental: Four categories of patient IL-6 level/ICU stay length were defined (i.e. the 4 quadrants described in Table 2). For each drug class with at least 10 patients, and for each quadrant with nonzero number of patients, the proportion of patients in the quadrant out of those taking a drug from the class were compared to the proportion of patients in the quadrant out of those not taking a drug from the class. Fisher exact test was performed to compute p-values on these proportion comparisons. A Benjamini-Hochberg adjustment was also applied to these p-values for multiple hypotheses.
Because only 10 patients met the aforementioned criteria, 10 additional COVID positive, ICU patients who only had IL-6 measured post-corticosteroid administration were also examined. Their IL-6 levels were plotted against the duration of ICU stay (see FIG. 3). Similarly, patients who received tocilizumab (n=5), azithromycin (n=49), hydroxychloroquine (n=10), and antivirals (lopinavir-ritonavir and ribavirin, n=4) were also examined. Patients were grouped into the following four categories based on IL-6 level, ICU status, and mortality: • (Q1) ICU<15 d and IL-6<10 pg/mL, • (Q2) ICU≥15 d or deceased and IL-6<10 pg/mL, • (Q3) ICU<15 d and IL-6≥10 pg/mL, and • (Q4) ICU≥15 d or deceased and IL-6≥10 pg/mL. […] As a corollary, corticosteroids have fewer patients (30%, n=20) in Q3 compared to tocilizumab (80%, n=5), azithromycin (61%, n=49), and hydroxychloroquine (60%, n=10). (See Table 2)

COVID-19 [2] = test: Kaplan-Meier survival of COVID-19 positive patients hospitalized at the Mayo Clinic, by drug cohort; format: in vivo, human
[3] = Q1: ICU <15 days and IL-6 <10 pg/mL
[4] = Q3: ICU <15 days and IL-6 ≥10 pg/mL
[5] = Q4: ICU ≥15 days or deceased and IL-6 ≥10 pg/mL
[6] = COVID-19 patients requiring ICU admission
[7] = all hospitalized COVID-19 patients

Molecule | patient count in quadrant Q1 (COVID-19 [1]; [3]) | patient count in quadrant Q2 (COVID-19 [1]) | proportion of patients in quadrant Q2 (COVID-19 [1]) | patients in Q3 (COVID-19 [1]) [%] | patient count in quadrant Q3 (COVID-19 [1]; [4]) | patient count in quadrant Q4 (COVID-19 [1]; [5]) | survival rate at 60 days post-diagnosis (COVID-19 [2]; [6]) [%] | survival rate at 60 days post-diagnosis (COVID-19 [2]; [7]) [%] | further results
CC[C@H]1OC(=O)[C@H](C)[C@@H](O[C@H]2C[C@@](C)(OC)[C@@H](O)[C@H](C)O2)[C@H](C)[C@@H](O[C@@H]2O[C@H](C)C[C@H](N(C)C)[C@H]2O)[C@](C)(O)C[C@@H](C)CN(C)[C@H](C)[C@@H](O)[C@]1(C)O [azithromycin] | 4 | 0 | (0) | 61 | 30 | 15 | 92 | 93 | Proportion of Group − Proportion of Other (COVID-19 [1]; quadrant Q1): −0.10; Proportion of Group − Proportion of Other (COVID-19 [1]; quadrant Q3): 0.17; Proportion of Group − Proportion of Other (COVID-19 [1]; quadrant Q4): −0.07
C[C@@H]1C[C@H]2[C@@H]3CCC4=CC(=O)C=C[C@]4(C)[C@@]3(F)[C@@H](O)C[C@]2(C)[C@@]1(O)C(=O)CO [dexamethasone] | – | – | – | – | – | – | 72 | 90 | –
C[C@]12CCC(=O)C=C1CC[C@@H]1[C@@H]2[C@@H](O)C[C@@]2(C)[C@H]1CC[C@]2(O)C(=O)CO [hydrocortisone] | – | – | – | – | – | – | – | 79 | –
CCN(CCO)CCCC(C)Nc1ccnc2cc(Cl)ccc12 (stereo not drawn) [hydroxychloroquine] | 2 | 0 | (0) | 60 | 6 | 2 | 100 | – | Proportion of Group − Proportion of Other (COVID-19 [1]; quadrant Q1): 0.08; Proportion of Group − Proportion of Other (COVID-19 [1]; quadrant Q3): 0.05; Proportion of Group − Proportion of Other (COVID-19 [1]; quadrant Q4): −0.13
C[C@H]1C[C@@H]2[C@H]([C@@H](O)C[C@@]3(C)[C@H]2CC[C@]3(O)C(=O)CO)[C@@]2(C)C=CC(=O)C=C12 [methylprednisolone] | – | – | – | – | – | – | – | – | survival rate at 60 days post-diagnosis (COVID-19 [2]; human, in vivo): 77%
C[C@]12C=CC(=O)C=C1CC[C@@H]1[C@@H]2C(=O)C[C@@]2(C)[C@H]1CC[C@]2(O)C(=O)CO [prednisone] | – | – | – | – | – | – | – | 92 | –
tocilizumab | 0 | 0 | (0) | 80 | 4 | 1 | – | – | proportion of patients in quadrant Q1 (COVID-19 [1]; [3]): (0); proportion of patients in quadrant Q3 (COVID-19 [1]; [4]): (0.8); proportion of patients in quadrant Q4 (COVID-19 [1]; [5]): (0.2); survival 60 days post diagnosis (in words) (COVID-19 [2]; hospitalized COVID-19 patients): all 11 hospitalized patients receiving tocilizumab survived
